Laboratory results taken from patent publication US8481481B2, “Peptides and their use as carriers into cancer cells” (Advanced Accelerator Applications S.A., priority 2008, dated 2013).
Peptide text beside a SMILES is read from it. * marks the point of attachment. X1 = O=C(C[NH+]1CC[NH2+][Pt-2]1([Cl])[Cl])*

Legend:
MCF-7 cells = assay: Quantitative determination by atomic absorption of cisplatin transported into tumour cells; assay type: cell-based, human
Protocol: The target cells MCF-7 were trypsinized, washed twice with buffered solution (PBS) and treated with 50 μl of 35% HNO3 for 16 hours. The platin content was determined by subjecting the samples to atomic absorption with an Analyst 800 instrument, by Perkin-Elmer, Norwalk, Conn., USA, using the following parameters: pre-treatment temperature, 1300° C.; atomization temperature, 2200° C.; using as the matrix modifier a composition of 0.015 mg of […] with 0.01 mg of Mg(NO3)2. The measurements were performed using the “Zeeman-effect background” correction system with Pyrolytic graphite-coated THGA tube (Perkin Elmer) and an integrated Lvov-type platform was used for metal determination. As standard solution we used a 2.5% HNO3 solution (Spectrascan) to obtain three reference points on the calibration curve.

Bax gene, normal cells = assay: Bax gene expression in normal cells (FIG. 2); assay type: cell-based
From the text: FIG. 2 confirms the apoptotic action of the rMnSOD-Lp-CC complex on various cell lines.
In the experiment, actin cDNA was inserted as control of quantitative DNA expression; to note that again in this case (a) indicates untreated cells, (b) indicates cells treated with the leader peptide of rMnSOD (b), and (c) indicates cells treated with the leader peptide conjugated to cisplatin.

[1] = test system: tumour cell lines (MCF7, M1735, MRC5 and A2780); assay: Immunocytochemistry with anti-leader peptide antibody on treated cell lines (FIG. 1); assay type: cell-based, human; settings: immunohistochemical reaction, three hours of incubation
Protocol: The target cells (MCF-7) in continuous culture, derived from a mammary tumour of human origin, were incubated for three hours in the presence or absence of: (a) 24-amino acid leader peptide of rMnSOD-Lp-CC not conjugated to any other molecules, (b) 24-amino acid leader peptide conjugated to cisplatin.
After incubation, the cells were fixed with Zamboni fixative (solution composed of 4% paraformaldehyde+15% picric acid) for 60 minutes and washed with PBS. The cells were then maintained in PBS containing 0.3% hydrogen peroxide, with the aim of blocking endogenous peroxidases. The polyclonal antibody (anti-leader peptide of rMnSOD obtained from rabbit), diluted 1/200 was then added to the cells and left for 1 hour at ambient temperature. To develop the reaction, a DAKO SLAB Peroxidase K0679 kit was used.

tumour cells = settings: recent study, state of the art; cited from earlier work

N.N.[Cl][Pt][Cl] [Cisplatin, cisplatin]
quantity of Pt, MCF-7 Pellet (MCF-7 cells; MCF-7 Pellet, atomic absorption): 2.3 ng-Pt ng Pt
quantity of cisplatin, MCF-7 Solution (MCF-7 cells; MCF-7 Solution, atomic absorption): Cisplatin 8.7 μg/l
quantity of Pt, MCF-7 Solution (MCF-7 cells; MCF-7 Solution, atomic absorption, value in brackets): (3.5 μg Pt)

CSCC[C@H](NC(=O)C[NH+]1CC[NH2+][Pt-2]1([Cl])[Cl])C(=O)N[C@@H](CC(C)C)C(=O)N[C@@H](CO)C(=O)N[C@@H](CCCNC(=N)N)C(=O)N[C@@H](C)C(=O)N[C@H](C(=O)N[C@@H](CS)C(=O)NCC(=O)N[C@H](C(=O)N[C@@H](CO)C(=O)N[C@@H](CCCNC(=N)N)C(=O)N[C@@H](CCC(N)=O)C(=O)N[C@@H](CC(C)C)C(=O)N[C@@H](C)C(=O)N1CCC[C@H]1C(=O)N[C@@H](C)C(=O)N[C@@H](CC(C)C)C(=O)NCC(=O)N[C@@H](Cc1ccc(O)cc1)C(=O)N[C@@H](CC(C)C)C(=O)NCC(=O)N[C@@H](CO)C(=O)N[C@@H](CCCNC(=N)N)C(=O)N[C@@H](CCC(N)=O)C(=O)O)[C@@H](C)O)C(C)C (some centres unmarked) [rMnSOD-Lp-CC] (X1-MLSRAVCGTSRQLAPALGYLGSRQ-OH)
toxic reaction / Bax gene expression (Bax gene, normal cells): does not induce any toxic reaction

MLSRAVCGTSRQLAPALGYLGSRQ [leader peptide of rMnSOD]
penetration into tumour cells / cell damage [1]: penetrated tumour cells without damaging the cells
quantity of cisplatin transported into cells relative to cisplatin alone (MCF-7 cells; tumour cells, Table 1): double

B1: LSA-type-MnSOD: manganese superoxide dismutase secreted by a liposarcoma cell line, 30 kDa (protein, UniProt P04179 25-222, looked up)
Superoxide dismutase [Mn], …: KHSLPDLPYDYGALEPHINAQIMQLHHSKHHAAYVNNLNVTEEKYQEALAKGDVTAQIALQPALKFNGGGHINHSIFWTNLSPNGGGEPKGELLEAIKRDFGSFDKFKEKLTAASVGVQGSGWGWLGFNKERGHLQIAACPNQDPLQGTTGLIPLLGIDVWEHAYYLQYKNVRPDYLKAIWNVINWENVTERYMACKK
cytotoxicity to tumour cells (tumour cells): cytotoxic specifically and selectively to tumour cells

B2: rMnSOD: recombinant form of LSA-type-MnSOD produced by specific cDNA clones (protein, UniProt P04179 25-222, looked up)
Superoxide dismutase [Mn], …: KHSLPDLPYDYGALEPHINAQIMQLHHSKHHAAYVNNLNVTEEKYQEALAKGDVTAQIALQPALKFNGGGHINHSIFWTNLSPNGGGEPKGELLEAIKRDFGSFDKFKEKLTAASVGVQGSGWGWLGFNKERGHLQIAACPNQDPLQGTTGLIPLLGIDVWEHAYYLQYKNVRPDYLKAIWNVINWENVTERYMACKK
cytotoxicity to tumour cells (tumour cells): retain the structural and oncotoxic properties of the native protein
